According to paper PMC10175095 (Therapeutic drug monitoring, 2023):

What was measured:
[1] = Pre-processed stability in human plasma; type: in vitro ADME; conditions: 2.5 h
[2] = Reinjection stability in final extract; type: physicochemical; conditions: reinjected, 4°C, autosampler, 25.95 h
[3] = Processed sample stability in final extract; type: physicochemical; conditions: 4°C, autosampler, 25.1 h
[4] = Freeze-thaw stability of unprocessed plasma samples; type: in vitro ADME; conditions: human plasma, 3 freeze (-80°C)-thaw cycles
[5] = Long-term stability of unprocessed plasma samples at −80°C; type: in vitro ADME; conditions: human plasma
[6] = major systemic metabolite; cited from earlier work
CDK4/6 = conditions: compared with abemaciclib; cited from earlier work
[7] = RT (20–25°C), yellow light, nominal 15 ng/mL
[8] = RT (20–25°C), yellow light, nominal 1500 ng/mL

- Accuracy vs fresh QCs ([1]; 37°C, dark, nominal 15 ng/mL): 95.8%
- Accuracy vs. nominal concentration ([1]; 37°C, dark, nominal 15 ng/mL): 101%
- Mean measured concentration ([1]; 37°C, dark, nominal 15 ng/mL): 15.1 ng/mL
- Accuracy vs fresh QCs ([1]; 37°C, dark, nominal 1500 ng/mL): 103%
- Accuracy vs. nominal concentration ([1]; 37°C, dark, nominal 1500 ng/mL): 103%
- Mean measured concentration ([1]; 37°C, dark, nominal 1500 ng/mL): 1540 ng/mL
- Accuracy vs fresh QCs [1, 7]: 96.6%
- Accuracy vs. nominal concentration [1, 7]: 102%
- Mean measured concentration [1, 7]: 15.3 ng/mL
- Accuracy vs fresh QCs [1, 8]: 104%
- Accuracy vs. nominal concentration [1, 8]: 104%
- Mean measured concentration [1, 8]: 1557 ng/mL
- Accuracy vs fresh QCs ([2]; nominal 15 ng/mL): 103%
- Accuracy vs. nominal concentration ([2]; nominal 15 ng/mL): 113%
- Mean measured concentration ([2]; nominal 15 ng/mL): 16.9 ng/mL
- Accuracy vs fresh QCs ([2]; nominal 150 ng/mL): 96.5%
- Accuracy vs. nominal concentration ([2]; nominal 150 ng/mL): 104%
- Mean measured concentration ([2]; nominal 150 ng/mL): 155 ng/mL
- Accuracy vs fresh QCs ([2]; nominal 1500 ng/mL): 103%
- Accuracy vs. nominal concentration ([2]; nominal 1500 ng/mL): 104%
- Mean measured concentration ([2]; nominal 1500 ng/mL): 1557 ng/mL
- Accuracy vs fresh QCs ([3]; nominal 15 ng/mL): 100%
- Accuracy vs. nominal concentration ([3]; nominal 15 ng/mL): 110%
- Mean measured concentration ([3]; nominal 15 ng/mL): 16.5 ng/mL
- Accuracy vs fresh QCs ([3]; nominal 1500 ng/mL): 102%
- Accuracy vs. nominal concentration ([3]; nominal 1500 ng/mL): 102%
- Mean measured concentration ([3]; nominal 1500 ng/mL): 1537 ng/mL
- Accuracy vs fresh QCs ([4]; nominal 15 ng/mL): 98.2%
- Accuracy vs. nominal concentration ([4]; nominal 15 ng/mL): 100%
- Mean measured concentration ([4]; nominal 15 ng/mL): 15.0 ng/mL
- Accuracy vs fresh QCs ([4]; nominal 1500 ng/mL): 98.2%
- Accuracy vs. nominal concentration ([4]; nominal 1500 ng/mL): 99.6%
- Mean measured concentration ([4]; nominal 1500 ng/mL): 1493 ng/mL
- Accuracy vs fresh QCs ([5]; 3 months, nominal 15 ng/mL): 107%
- Accuracy vs. nominal concentration ([5]; 3 months, nominal 15 ng/mL): 97.6%
- Mean measured concentration ([5]; 3 months, nominal 15 ng/mL): 14.6 ng/mL
- Accuracy vs fresh QCs ([5]; 3 months, nominal 150 ng/mL): 104%
- Accuracy vs. nominal concentration ([5]; 3 months, nominal 150 ng/mL): 100%
- Mean measured concentration ([5]; 3 months, nominal 150 ng/mL): 150 ng/mL
- Accuracy vs fresh QCs ([5]; 3 months, nominal 1500 ng/mL): 98.7%
- Accuracy vs. nominal concentration ([5]; 3 months, nominal 1500 ng/mL): 100%
- Mean measured concentration ([5]; 3 months, nominal 1500 ng/mL): 1503 ng/mL
- Accuracy vs fresh QCs ([5]; 7 months, nominal 15 ng/mL): 102%
- Accuracy vs. nominal concentration ([5]; 7 months, nominal 15 ng/mL): 96.9%
- Mean measured concentration ([5]; 7 months, nominal 15 ng/mL): 14.5 ng/mL
- Accuracy vs fresh QCs ([5]; 7 months, nominal 150 ng/mL): 92.4%
- Accuracy vs. nominal concentration ([5]; 7 months, nominal 150 ng/mL): 102%
- Mean measured concentration ([5]; 7 months, nominal 150 ng/mL): 154 ng/mL
- Accuracy vs fresh QCs ([5]; 7 months, nominal 1500 ng/mL): 93.8%
- Accuracy vs. nominal concentration ([5]; 7 months, nominal 1500 ng/mL): 93.6%
- Mean measured concentration ([5]; 7 months, nominal 1500 ng/mL): 1403 ng/mL
- Accuracy vs fresh QCs ([5]; 12 months, nominal 15 ng/mL): 111%
- Accuracy vs. nominal concentration ([5]; 12 months, nominal 15 ng/mL): 101%
- Mean measured concentration ([5]; 12 months, nominal 15 ng/mL): 15.1 ng/mL
- Accuracy vs fresh QCs ([5]; 12 months, nominal 150 ng/mL): 95.6%
- Accuracy vs. nominal concentration ([5]; 12 months, nominal 150 ng/mL): 110%
- Mean measured concentration ([5]; 12 months, nominal 150 ng/mL): 166 ng/mL
- Accuracy vs fresh QCs ([5]; 12 months, nominal 1500 ng/mL): 96.8%
- Accuracy vs. nominal concentration ([5]; 12 months, nominal 1500 ng/mL): 104%
- Mean measured concentration ([5]; 12 months, nominal 1500 ng/mL): 1567 ng/mL
Compound: Cc1nc2c(F)cc(-c3nc(Nc4ccc(CN5CCNCC5)cn4)ncc3F)cc2n1C(C)C [Abemaciclib-M2]
- Share of the total circulating analytes in plasma [6]: 25%
- Pharmacological potency vs parent drug (CDK4/6): equipotent
